Measurements taken from publication PMC8550792, “Evolution of kinase polypharmacology across HSP90 drug discovery” (Cell Chemical Biology, 2021).

What was measured:
Assay in all cases: biochemical
Assay type in all cases: biochemical
[1] = target: T1, 382 unique human kinases (Homo sapiens, UniProt Q56UN5); settings: kinase YSK4/MAP3K19, compound 10 uM; for remaining activity at 10 µM: read-out: % Enzyme Activity (relative to DMSO controls)
T1 construct: purchased Reaction Biology (HotSpot contract assay)
T1 sequence (Q56UN5 1-1328): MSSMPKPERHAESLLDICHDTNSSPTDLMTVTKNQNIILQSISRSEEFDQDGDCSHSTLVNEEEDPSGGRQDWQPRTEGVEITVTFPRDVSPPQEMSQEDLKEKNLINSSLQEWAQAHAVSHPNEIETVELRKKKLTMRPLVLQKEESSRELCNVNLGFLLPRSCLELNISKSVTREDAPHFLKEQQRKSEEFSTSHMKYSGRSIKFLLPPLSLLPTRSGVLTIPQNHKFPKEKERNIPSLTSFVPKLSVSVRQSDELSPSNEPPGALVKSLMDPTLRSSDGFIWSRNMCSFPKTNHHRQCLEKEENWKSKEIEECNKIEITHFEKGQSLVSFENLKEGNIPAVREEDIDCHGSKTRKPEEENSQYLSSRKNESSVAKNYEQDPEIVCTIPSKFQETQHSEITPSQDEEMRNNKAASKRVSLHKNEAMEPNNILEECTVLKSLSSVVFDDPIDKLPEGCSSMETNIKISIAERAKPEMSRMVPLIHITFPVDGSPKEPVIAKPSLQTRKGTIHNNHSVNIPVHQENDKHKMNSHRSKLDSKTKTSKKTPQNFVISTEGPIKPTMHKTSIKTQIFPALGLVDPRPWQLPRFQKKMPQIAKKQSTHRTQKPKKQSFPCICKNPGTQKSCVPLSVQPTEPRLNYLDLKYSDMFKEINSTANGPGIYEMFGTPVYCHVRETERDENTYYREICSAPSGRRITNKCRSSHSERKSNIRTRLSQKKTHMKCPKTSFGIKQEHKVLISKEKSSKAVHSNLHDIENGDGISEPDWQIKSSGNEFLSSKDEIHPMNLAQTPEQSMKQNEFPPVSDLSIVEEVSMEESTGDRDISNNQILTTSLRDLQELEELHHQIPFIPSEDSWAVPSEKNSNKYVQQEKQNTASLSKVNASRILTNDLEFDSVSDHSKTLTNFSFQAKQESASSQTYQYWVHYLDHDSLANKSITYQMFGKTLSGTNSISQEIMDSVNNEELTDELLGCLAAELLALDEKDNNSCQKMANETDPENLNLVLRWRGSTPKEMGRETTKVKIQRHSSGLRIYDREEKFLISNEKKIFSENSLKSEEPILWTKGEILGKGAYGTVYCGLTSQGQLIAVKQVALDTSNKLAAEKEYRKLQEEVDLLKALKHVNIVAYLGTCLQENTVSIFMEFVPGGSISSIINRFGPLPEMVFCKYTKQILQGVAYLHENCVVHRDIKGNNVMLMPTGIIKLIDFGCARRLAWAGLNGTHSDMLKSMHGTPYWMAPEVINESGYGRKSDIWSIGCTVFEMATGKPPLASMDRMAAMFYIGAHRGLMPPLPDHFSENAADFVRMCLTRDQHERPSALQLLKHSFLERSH

[2] = target: T2, 382 unique human kinases (Homo sapiens, UniProt Q13627); settings: DYRK1/DYRK1A, 10 uM; for remaining activity at 10 µM: read-out: % Enzyme Activity (relative to DMSO controls)
T2 construct: purchased Reaction Biology (HotSpot contract assay)

[3] = target: T3, 382 unique human kinases (Homo sapiens, UniProt P50613); settings: kinase CDK7/cyclin H, compound 10 uM; for remaining activity at 10 µM: read-out: % Enzyme Activity (relative to DMSO controls)
T3 construct: purchased Reaction Biology (HotSpot contract assay)
T3 sequence (P50613 whole entry): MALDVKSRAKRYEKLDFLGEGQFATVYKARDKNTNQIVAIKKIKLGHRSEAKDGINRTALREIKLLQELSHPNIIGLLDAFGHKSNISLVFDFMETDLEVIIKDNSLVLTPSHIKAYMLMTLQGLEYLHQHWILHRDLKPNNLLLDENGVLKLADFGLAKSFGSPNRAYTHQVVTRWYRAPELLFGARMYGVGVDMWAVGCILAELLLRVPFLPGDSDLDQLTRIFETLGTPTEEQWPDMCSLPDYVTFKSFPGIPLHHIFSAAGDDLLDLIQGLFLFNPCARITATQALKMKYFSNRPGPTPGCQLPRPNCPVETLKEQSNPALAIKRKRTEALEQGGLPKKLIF

[4] = target: T4, 382 unique human kinases (Homo sapiens, UniProt Q76MJ5); settings: ERN2/IRE2, 10 uM; for remaining activity at 10 µM: read-out: % Enzyme Activity (relative to DMSO controls)
T4 construct: purchased Reaction Biology (HotSpot contract assay)
T4 sequence (Q76MJ5 35-926): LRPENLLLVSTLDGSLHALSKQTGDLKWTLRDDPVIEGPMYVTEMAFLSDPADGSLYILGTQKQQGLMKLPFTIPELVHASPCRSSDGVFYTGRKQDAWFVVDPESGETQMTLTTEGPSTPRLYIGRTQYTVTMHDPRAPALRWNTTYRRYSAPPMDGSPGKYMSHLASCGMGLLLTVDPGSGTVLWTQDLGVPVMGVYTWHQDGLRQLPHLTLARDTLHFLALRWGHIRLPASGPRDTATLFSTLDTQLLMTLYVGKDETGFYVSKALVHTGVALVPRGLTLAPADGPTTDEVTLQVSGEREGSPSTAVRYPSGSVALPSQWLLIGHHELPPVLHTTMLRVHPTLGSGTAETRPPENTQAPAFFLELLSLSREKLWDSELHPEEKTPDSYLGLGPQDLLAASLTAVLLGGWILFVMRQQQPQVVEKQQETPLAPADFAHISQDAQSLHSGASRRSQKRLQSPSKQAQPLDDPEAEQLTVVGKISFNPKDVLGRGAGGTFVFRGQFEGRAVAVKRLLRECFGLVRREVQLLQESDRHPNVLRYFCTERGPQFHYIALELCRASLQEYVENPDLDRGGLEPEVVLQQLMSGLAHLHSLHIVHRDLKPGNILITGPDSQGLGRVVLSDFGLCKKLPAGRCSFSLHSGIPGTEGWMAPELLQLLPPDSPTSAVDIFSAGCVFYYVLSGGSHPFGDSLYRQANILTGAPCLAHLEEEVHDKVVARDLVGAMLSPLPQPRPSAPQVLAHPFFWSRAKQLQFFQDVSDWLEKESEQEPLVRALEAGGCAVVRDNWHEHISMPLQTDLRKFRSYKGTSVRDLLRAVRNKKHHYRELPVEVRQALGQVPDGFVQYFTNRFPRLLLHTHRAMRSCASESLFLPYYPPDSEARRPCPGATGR

[5] = target: T5, 382 unique human kinases (Homo sapiens, UniProt Q16832); settings: DDR2, [ATP] 5 µM
T5 construct: purchased Reaction Biology (HotSpot contract assay)
T5 sequence (Q16832 22-855): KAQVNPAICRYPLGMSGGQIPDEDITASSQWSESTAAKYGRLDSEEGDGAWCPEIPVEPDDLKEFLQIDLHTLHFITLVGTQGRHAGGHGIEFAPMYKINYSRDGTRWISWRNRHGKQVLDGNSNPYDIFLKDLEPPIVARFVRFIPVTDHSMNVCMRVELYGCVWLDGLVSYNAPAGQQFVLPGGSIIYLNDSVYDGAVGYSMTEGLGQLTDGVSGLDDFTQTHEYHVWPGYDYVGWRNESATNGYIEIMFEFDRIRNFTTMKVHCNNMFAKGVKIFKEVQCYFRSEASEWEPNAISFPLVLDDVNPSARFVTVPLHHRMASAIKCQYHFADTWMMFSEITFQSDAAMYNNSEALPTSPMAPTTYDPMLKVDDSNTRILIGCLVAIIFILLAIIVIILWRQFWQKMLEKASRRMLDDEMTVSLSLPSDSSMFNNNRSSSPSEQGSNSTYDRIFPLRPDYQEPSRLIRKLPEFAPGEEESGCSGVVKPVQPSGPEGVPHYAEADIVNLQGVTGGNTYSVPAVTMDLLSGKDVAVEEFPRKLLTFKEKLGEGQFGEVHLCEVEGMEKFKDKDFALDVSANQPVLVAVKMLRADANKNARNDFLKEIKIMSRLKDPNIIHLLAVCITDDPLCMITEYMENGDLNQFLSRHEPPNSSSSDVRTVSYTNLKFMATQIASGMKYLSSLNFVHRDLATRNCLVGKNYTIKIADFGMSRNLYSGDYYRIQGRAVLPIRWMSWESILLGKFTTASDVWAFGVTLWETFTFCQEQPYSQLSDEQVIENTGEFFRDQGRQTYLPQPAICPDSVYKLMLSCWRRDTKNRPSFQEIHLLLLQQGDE

[6] = target: T6, 382 unique human kinases (Homo sapiens, UniProt P05771); settings: PKCb1, 10 uM; for remaining activity at 10 µM: read-out: % Enzyme Activity (relative to DMSO controls)
T6 construct: purchased Reaction Biology (HotSpot contract assay)
T6 sequence (P05771 whole entry): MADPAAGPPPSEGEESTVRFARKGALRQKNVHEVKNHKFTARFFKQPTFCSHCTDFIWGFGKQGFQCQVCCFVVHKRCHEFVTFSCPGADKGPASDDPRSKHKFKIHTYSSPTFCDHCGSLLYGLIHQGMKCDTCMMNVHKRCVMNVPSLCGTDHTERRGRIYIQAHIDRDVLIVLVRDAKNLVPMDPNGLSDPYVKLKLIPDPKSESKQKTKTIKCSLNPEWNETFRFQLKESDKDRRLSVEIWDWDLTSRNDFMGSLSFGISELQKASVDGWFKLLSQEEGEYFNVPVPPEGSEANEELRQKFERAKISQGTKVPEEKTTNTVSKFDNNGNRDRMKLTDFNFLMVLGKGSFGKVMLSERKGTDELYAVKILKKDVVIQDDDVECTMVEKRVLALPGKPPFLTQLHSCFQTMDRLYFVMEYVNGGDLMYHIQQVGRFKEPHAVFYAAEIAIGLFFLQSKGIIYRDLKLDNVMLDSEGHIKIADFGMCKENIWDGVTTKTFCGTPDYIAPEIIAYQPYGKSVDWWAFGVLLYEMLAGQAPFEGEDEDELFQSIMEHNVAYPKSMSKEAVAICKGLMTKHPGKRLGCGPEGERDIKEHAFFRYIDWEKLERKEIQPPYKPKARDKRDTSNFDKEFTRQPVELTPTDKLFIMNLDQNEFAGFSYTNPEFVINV

[7] = target: T7, 382 unique human kinases (Homo sapiens, UniProt O75716); settings: STK16, [ATP] 5 µM, compound 10 uM; for remaining activity at 10 µM: read-out: % Enzyme Activity (relative to DMSO controls)
T7 construct: purchased Reaction Biology (HotSpot contract assay)
T7 sequence (O75716 whole entry): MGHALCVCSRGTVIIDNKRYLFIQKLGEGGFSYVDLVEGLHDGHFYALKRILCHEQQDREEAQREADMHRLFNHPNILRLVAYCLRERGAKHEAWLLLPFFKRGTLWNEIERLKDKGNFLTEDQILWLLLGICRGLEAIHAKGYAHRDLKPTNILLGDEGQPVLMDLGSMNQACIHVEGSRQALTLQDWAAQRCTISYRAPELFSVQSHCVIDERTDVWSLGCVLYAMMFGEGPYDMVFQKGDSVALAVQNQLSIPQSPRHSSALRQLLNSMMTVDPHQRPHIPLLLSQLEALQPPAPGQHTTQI

[8] = target: T8, 382 unique human kinases (Homo sapiens, UniProt P51812, I416V); settings: RSK2 (I416V), [ATP] 10 µM, compound 10 uM; for remaining activity at 10 µM: read-out: % Enzyme Activity (relative to DMSO controls)
T8 construct: purchased Reaction Biology (HotSpot contract assay)
T8 sequence (P51812 whole entry I416V): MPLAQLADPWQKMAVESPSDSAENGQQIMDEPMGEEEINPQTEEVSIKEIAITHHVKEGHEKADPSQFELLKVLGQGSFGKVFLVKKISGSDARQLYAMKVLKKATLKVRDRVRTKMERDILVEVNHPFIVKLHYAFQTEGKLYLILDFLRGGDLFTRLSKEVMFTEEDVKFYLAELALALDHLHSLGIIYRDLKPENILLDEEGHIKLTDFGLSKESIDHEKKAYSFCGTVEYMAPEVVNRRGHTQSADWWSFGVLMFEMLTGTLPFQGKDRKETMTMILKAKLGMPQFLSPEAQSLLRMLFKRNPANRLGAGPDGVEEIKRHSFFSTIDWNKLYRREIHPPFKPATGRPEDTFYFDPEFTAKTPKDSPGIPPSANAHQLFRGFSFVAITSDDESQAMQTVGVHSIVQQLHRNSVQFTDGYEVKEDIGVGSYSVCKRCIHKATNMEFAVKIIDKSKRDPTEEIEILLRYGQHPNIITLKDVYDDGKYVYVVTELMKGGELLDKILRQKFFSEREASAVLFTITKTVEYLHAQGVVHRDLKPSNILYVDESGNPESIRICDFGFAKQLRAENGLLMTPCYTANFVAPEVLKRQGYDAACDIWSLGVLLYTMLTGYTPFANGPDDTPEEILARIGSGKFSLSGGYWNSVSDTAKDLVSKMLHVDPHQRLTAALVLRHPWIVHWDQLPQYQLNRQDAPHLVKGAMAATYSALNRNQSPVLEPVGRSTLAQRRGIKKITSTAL

[9] = target: T9, 382 unique human kinases (Homo sapiens, UniProt Q04912); settings: RON/MST1R, 10 uM; for remaining activity at 10 µM: read-out: % Enzyme Activity (relative to DMSO controls)
T9 construct: purchased Reaction Biology (HotSpot contract assay)
T9 sequence (Q04912 25-1400): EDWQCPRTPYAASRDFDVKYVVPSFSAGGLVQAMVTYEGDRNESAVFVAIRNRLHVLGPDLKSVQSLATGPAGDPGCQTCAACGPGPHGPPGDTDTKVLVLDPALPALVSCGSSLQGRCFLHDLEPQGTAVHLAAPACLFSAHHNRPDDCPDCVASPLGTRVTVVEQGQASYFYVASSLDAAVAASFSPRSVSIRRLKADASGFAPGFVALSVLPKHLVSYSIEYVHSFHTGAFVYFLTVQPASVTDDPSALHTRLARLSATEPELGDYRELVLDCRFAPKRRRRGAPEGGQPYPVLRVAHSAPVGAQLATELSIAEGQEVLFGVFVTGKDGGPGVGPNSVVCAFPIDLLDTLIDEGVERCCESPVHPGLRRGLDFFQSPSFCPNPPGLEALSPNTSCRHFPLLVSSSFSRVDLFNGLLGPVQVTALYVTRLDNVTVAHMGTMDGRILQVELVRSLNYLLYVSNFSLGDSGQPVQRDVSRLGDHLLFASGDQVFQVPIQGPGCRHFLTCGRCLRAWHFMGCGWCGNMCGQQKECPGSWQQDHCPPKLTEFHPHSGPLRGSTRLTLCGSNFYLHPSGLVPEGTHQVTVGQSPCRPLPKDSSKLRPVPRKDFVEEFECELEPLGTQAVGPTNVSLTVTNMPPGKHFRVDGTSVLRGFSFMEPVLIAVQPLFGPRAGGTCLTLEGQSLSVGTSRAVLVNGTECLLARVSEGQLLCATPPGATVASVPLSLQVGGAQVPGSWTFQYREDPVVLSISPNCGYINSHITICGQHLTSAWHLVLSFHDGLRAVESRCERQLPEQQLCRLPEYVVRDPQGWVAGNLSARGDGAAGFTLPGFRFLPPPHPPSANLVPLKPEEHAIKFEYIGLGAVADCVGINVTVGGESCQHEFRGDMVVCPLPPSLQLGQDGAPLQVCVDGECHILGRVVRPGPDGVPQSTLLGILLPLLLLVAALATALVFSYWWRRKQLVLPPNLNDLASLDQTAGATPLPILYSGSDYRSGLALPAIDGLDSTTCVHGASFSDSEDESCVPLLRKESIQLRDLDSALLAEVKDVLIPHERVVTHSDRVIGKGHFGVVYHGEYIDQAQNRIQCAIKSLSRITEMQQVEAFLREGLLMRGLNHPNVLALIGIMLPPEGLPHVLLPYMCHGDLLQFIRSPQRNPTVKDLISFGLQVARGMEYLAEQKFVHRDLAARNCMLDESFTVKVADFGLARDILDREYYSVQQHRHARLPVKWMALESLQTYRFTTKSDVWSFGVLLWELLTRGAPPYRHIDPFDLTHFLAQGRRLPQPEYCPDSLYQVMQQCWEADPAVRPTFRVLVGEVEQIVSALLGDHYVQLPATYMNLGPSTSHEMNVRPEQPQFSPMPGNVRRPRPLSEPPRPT

[10] = compound 10 uM, read-out: % Enzyme Activity (relative to DMSO controls)

CC(C)c1cc(-c2n[nH]c(=O)n2-c2ccc3c(ccn3C)c2)c(O)cc1O [Ganetespib (STA9090)]
remaining activity at 10 µM [1]: 85.8% | remaining activity at 10 µM [2]: 69.6% | remaining activity at 10 µM [3]: 95.8% | remaining activity at 10 µM [4]: 66.7%

CC(C)c1cc(-c2n[nH]c(=O)n2-c2ccc3c(ccn3C)c2)c(O)cc1O [Ganetespib]
remaining activity at 1 µM ([5]; compound 1 uM, read-out: % Enzyme Activity (relative to DMSO controls)): 51.9% | remaining activity at 10 µM [5, 10]: 14.5% | remaining activity at 10 µM [6]: 109% | remaining activity at 10 µM [7]: 32.4% | remaining activity at 10 µM [8]: 56.7% | remaining activity at 10 µM [9]: 106%

CCNC(=O)c1noc(-c2cc(C(C)C)c(O)cc2O)c1-c1ccc(CN2CCOCC2)cc1 [Luminespib (AUY-922)]
% Enzyme Activity (relative to DMSO controls) [1]: 85.23% | remaining activity at 10 µM [1]: 88.7% | % Enzyme Activity (relative to DMSO controls) [2]: 94.59% | remaining activity at 10 µM [2]: 97.2% | % Enzyme Activity (relative to DMSO controls) [3]: 84.47% | remaining activity at 10 µM [3]: 85.3% | % Enzyme Activity (relative to DMSO controls) [4]: 105.69% | remaining activity at 10 µM [4]: 108%

CCNC(=O)c1noc(-c2cc(C(C)C)c(O)cc2O)c1-c1ccc(CN2CCOCC2)cc1 [Luminespib]
% Enzyme Activity (relative to DMSO controls) ([5]; compound 10 uM): 105.89% | remaining activity at 10 µM [5, 10]: 107% | % Enzyme Activity (relative to DMSO controls) [6]: 93.07% | remaining activity at 10 µM [6]: 93.8% | % Enzyme Activity (relative to DMSO controls) [7]: 98.01% | remaining activity at 10 µM [7]: 98.4% | % Enzyme Activity (relative to DMSO controls) [8]: 87.06% | remaining activity at 10 µM [8]: 88.9% | % Enzyme Activity (relative to DMSO controls) [9]: 94.46% | remaining activity at 10 µM [9]: 100%
